Data from the supplement of paper PMC4862054.

Tests used:
Details in all cases: incubation time: 72 h
MDA-MB-231 [1] = test: drug sensitivity score (DSS), CellTiter-Blue viability (DSS (AUC-based score)); higher = stronger viability inhibition; extreme values may be limits of the assay
Procedure: (§1)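 DSRT with the CellTiter-Blue (resazurin reduction) viability readout, fluorescence 560/590 nm, 72 h incubation. Plates were normalised to DMSO and benzethonium chloride controls. DSS is computed from the area under the fitted dose-response curve (5 or 9 concentrations).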

HCC1143 [2] = test: as above
Procedure: as §1

BT-549 [3] = test: as above
Procedure: as §1

BT-474 [4] = test: as above
Procedure: as §1

MDA-MB-436 [5] = test: as above
Procedure: as §1

CAL-51 [6] = test: as above
Procedure: as §1

HCC1937 [7] = test: as above
Procedure: as §1

HDQ-P1 = test: drug sensitivity score (DSS), CellTox Green (DSS (AUC-based score)); higher = stronger drug effect (viability inhibition or cytotoxicity); extreme values may be limits of the assay
Summary of the method: (§2)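 Breast cancer cell lines were seeded in 20 µl suspension into 384-well plates already holding compound and incubated for 72 h. Each compound was tested at 5 concentrations in 10-fold steps across its own 10,000-fold range. Plates were normalised to 0.1 % DMSO and a positive kill control after CellTox Green and then CellTiter-Glo readings. The area under the fitted dose-response curve served as the basis for the drug sensitivity score.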

MCF-10A = test: as above
Summary of the method: as §2

MDA-MB-453 = test: as above
Summary of the method: as §2

CAL-148 = test: as above
Summary of the method: as §2

Hs578T = test: as above
Summary of the method: as §2

MDA-MB-231 [8] = test: as above
Summary of the method: as §2

MDA-MB-468 = test: as above
Summary of the method: as §2

MFM-223 = test: as above
Summary of the method: as §2

HCC1143 [9] = test: as above
Summary of the method: as §2

BT-549 [10] = test: as above
Summary of the method: as §2

BT-474 [11] = test: as above
Summary of the method: as §2

HCC1599 = test: as above
Summary of the method: as §2

MDA-MB-436 [12] = test: as above
Summary of the method: as §2

DU-4475 = test: as above
Summary of the method: as §2

CAL-51 [13] = test: as above
Summary of the method: as §2

CAL-85-1 = test: as above
Summary of the method: as §2

HCC1937 [14] = test: as above
Summary of the method: as §2

CAL-120 = test: as above
Summary of the method: as §2

SMILES	drug sensitivity score (MDA-MB-231 [1])	drug sensitivity score (HCC1143 [2])	drug sensitivity score (BT-549 [3])	drug sensitivity score (BT-474 [4])	drug sensitivity score (MDA-MB-436 [5])	drug sensitivity score (CAL-51 [6])	drug sensitivity score (HCC1937 [7])	drug sensitivity score (HDQ-P1)	drug sensitivity score (MCF-10A)	drug sensitivity score (MDA-MB-453)	drug sensitivity score (CAL-148)	drug sensitivity score (Hs578T)	drug sensitivity score (MDA-MB-231 [8])	drug sensitivity score (MDA-MB-468)	drug sensitivity score (MFM-223)	drug sensitivity score (HCC1143 [9])	drug sensitivity score (BT-549 [10])	drug sensitivity score (BT-474 [11])	drug sensitivity score (HCC1599)	drug sensitivity score (MDA-MB-436 [12])	drug sensitivity score (DU-4475)	drug sensitivity score (CAL-51 [13])	drug sensitivity score (CAL-85-1)	drug sensitivity score (HCC1937 [14])	drug sensitivity score (CAL-120)
COc1cccc2c1C(=O)c1c(O)c3c(c(O)c1C2=O)C[C@@](O)(C(C)=O)C[C@@H]3O[C@H]1C[C@H](N)[C@H](O)[C@H](C)O1 [Daunorubicin]	13.5	10.9	9.47	7.7	10.8	13.7	14.9	0	0	0	0	0	0	4.94	0	0	0	0	0	1.42	0	5.74	0	0	0
COC(=O)C[C@](O)(CCCC(C)(C)O)C(=O)O[C@@H]1C(OC)=C[C@]23CCCN2CCc2cc4c(cc2[C@H]13)OCO4 [Omacetaxine]	27.8	24.5	28.3	20.5	26.7	30.7	31.8	3.97	13.3	0	6.49	17.1	7.01	3.61	18.3	0	4.27	0.916	0	1.54	0	0	29	0	1.24
C#Cc1cccc(Nc2ncnc3cc(OC)c(OCCCCCCC(=O)NO)cc23)c1 [CUDC-101]	12	12.4	8.79	14.8	10.6	4.16	11.3	0	1.27	4.37	8.84	2.25	12.7	13	5.86	0	0	6.29	0	5.42	2.65	6.83	20.1	0	3.78
CC(=O)O[C@H]1C(=O)[C@@]2(C)[C@H]([C@H](OC(=O)c3ccccc3)[C@]3(O)C[C@H](OC(=O)[C@H](O)[C@@H](NC(=O)c4ccccc4)c4ccccc4)C(C)=C1C3(C)C)[C@]1(OC(C)=O)CO[C@@H]1C[C@@H]2O [Paclitaxel]	21.4	17.6	24.7	19	15.8	19.3	22.9	0	21.4	0	7.75	20.3	25.5	26.9	13.7	0	9.38	12.7	0	7.09	0	22.7	23.2	0	2.71
COc1c(C)cnc(Cn2cnc3c(Cl)nc(N)nc32)c1C [BIIB021]	15.8	17	18.8	18.8	11.9	15.5	19.4	3.67	15.3	0	16	3.62	6.24	0	0	0	0	4.79	0	0	4.2	5.48	6.72	0	0
O=C(c1ccc(OCCN2CCCCC2)cc1)c1c(-c2ccc(O)cc2)sc2cc(O)ccc12 [Raloxifene]	0	0	0	0	0	0	0	1.26	0	0	0	2.23	0	0	0	0	0	0	0.798	0	0	0	0	0	1.42
COc1ncc(-c2ccc3nccc(-c4ccnnc4)c3c2)cc1NS(=O)(=O)c1ccc(F)cc1F	13.3	14.6	13.6	19.9	14.2	21.4	12.3	0	0.561	0	6.5	3.92	3.08	9.19	3.89	0	0	6.83	0	0	0	6.6	0	5.84	0
CN1CCN(c2ccc3nc(-c4c(N)c5c(F)cccc5[nH]c4=O)[nH]c3c2)CC1 [Dovitinib]	0	0	0	0	0	0	3.16	0	0	0	0	4.14	0.731	0	0	0	0	0	0	0	0	0	0	0	0
CCCC(CCC)C(=O)O [Valproic acid]	0	0	0	0	0	0	0	0	0	0	0	0	0	0	0	0	0	0	0	0	0	0	0	0	0
C[C@@]1(C(=O)Nc2ccc(F)nc2)CCCN1c1nc(Nc2cc(C3CC3)n[nH]2)c2cccn2n1	11	9.58	6.82	0	2.82	9.17	6.32	4.62	6.69	0	2.31	0	6.52	18.2	3.84	9.05	0	0	0	0	0	10.5	0	0	3.17
COC1=C2C[C@@H](C)C[C@H](OC)[C@H](O)[C@@H](C)/C=C(\C)[C@H](OC(N)=O)[C@@H](OC)/C=C\C=C(/C)C(=O)NC(=CC1=O)C2=O [Geldanamycin]	24.2	20.4	23.4	22.7	25	14.4	21.8	0	7.09	0	0	0	4.3	25	2.69	0	0	2.54	0	0	0.88	1.35	6.66	6.9	0
COC1=CC(c2cc3ccccc3[nH]2)=N/C1=C\c1[nH]c(C)cc1C [Obatoclax]	21	9.51	16.4	15.2	13.7	7.63	25.1	0	0	0	0	0	12.7	0	0	0	0	0	0	0	0	6.54	0	0	0
CS(=O)(=O)OCCCCOS(C)(=O)=O [Busulfan]	0	0	0	0	0	0	2.62	2.69	0	0	0	0	0	3.07	0	0	0	0	0	0	0	0	0	0	0
